# Patent US6107318A, “Naphthothiazolone derivatives active on the D3 dopaminergic receptor” (Zambon Group S.p.A., priority 1997, dated 2000)
# Counter-ions that a name gives are not always drawn.
# What was measured:
# D1 = biological target: T1, D1 (Homo sapiens, UniProt P21728); assay: Binding to dopaminergic receptors in cell cultures, displacement of [3H]-SCH23390, D1; settings: CHO or NM9D cell membranes; [3H]-SCH23390 0.2 nM; non specific (-)cis-flupenthixol 1 μM; Cheng and Prusoff; read-out: Receptor binding (Ki nM) D1
# T1 construct: expressed in transfected cells; host or cells: CHO or murine mesencephalic neuronal NM9D (sic)
# T1 sequence (P21728 whole entry): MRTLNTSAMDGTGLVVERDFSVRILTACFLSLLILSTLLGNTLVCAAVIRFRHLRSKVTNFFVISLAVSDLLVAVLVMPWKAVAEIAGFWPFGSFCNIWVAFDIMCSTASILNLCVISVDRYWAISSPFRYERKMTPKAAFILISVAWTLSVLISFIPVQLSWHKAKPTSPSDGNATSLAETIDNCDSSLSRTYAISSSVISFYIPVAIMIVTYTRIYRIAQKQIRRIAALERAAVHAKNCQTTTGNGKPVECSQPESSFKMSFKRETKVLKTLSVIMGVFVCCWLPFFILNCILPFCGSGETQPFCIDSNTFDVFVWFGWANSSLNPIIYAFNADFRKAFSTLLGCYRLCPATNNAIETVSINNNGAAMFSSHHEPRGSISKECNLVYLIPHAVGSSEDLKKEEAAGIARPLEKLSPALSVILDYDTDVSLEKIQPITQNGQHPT
# Protocol: (§1) Test for evaluating the bindings to dopaminergic receptors in cell cultures
# (§2) Chinese hamster ovary cells (CHO) transfected with dopaminergic receptor subtypes and murine mesencephalic neuronal (NM9D) expressing the different subtypes of such receptors were used. The cell lines were grown on Petri dishes, in a mixture of DMEM and Ham's F12 medium 1:1 supplemented with 10% foetal bovine serum (FBS), penicillin, streptomycin, geneticin (500 μg/ml) and glutamin in a humidified 5% CO2 atmosphere at 37° C. When cells reached confluence they were washed with 10 ml of PBS (KCl 2.68 mM, KH2 PO4 1.4 mM, NaCl […] and Na2 HPO4 6.4 mM) then 5 ml of lysis buffer (Tris-HCl 10 mM and EDTA 5 mM) were added to each Petri. Cells were scrapped and the solution centrifuged for 20 minutes at 48,000 gravity, 4° C. The pellet was suspended in a minimal amount of lysis buffer and homogenised for 15 seconds. […] Saturation curves were analysed using Ligand® program to have Kd (dissociation constant) and Bmax (number of receptors/mg of protein) (Munson and Rodbar, 1980Anal. Biochem., 107, 220-239). […]
# (§3) The compounds of the invention were tested at increasing concentrations for evaluating their binding to the various receptors, expressed as Ki (affinity constant) obtained through the Cheng and Prusoff equation
# D5 = biological target: T2, D5 (Homo sapiens, UniProt P21918); assay: Binding to dopaminergic receptors in cell cultures, displacement of [3H]-SCH23390, D5; settings: CHO or NM9D cell membranes; [3H]-SCH23390 0.2 nM; non specific (-)cis-flupenthixol 1 μM; Cheng and Prusoff; read-out: Receptor binding (Ki nM) D5
# T2 construct: expressed in transfected cells; host or cells: CHO or murine mesencephalic neuronal NM9D (sic)
# T2 sequence (P21918 whole entry): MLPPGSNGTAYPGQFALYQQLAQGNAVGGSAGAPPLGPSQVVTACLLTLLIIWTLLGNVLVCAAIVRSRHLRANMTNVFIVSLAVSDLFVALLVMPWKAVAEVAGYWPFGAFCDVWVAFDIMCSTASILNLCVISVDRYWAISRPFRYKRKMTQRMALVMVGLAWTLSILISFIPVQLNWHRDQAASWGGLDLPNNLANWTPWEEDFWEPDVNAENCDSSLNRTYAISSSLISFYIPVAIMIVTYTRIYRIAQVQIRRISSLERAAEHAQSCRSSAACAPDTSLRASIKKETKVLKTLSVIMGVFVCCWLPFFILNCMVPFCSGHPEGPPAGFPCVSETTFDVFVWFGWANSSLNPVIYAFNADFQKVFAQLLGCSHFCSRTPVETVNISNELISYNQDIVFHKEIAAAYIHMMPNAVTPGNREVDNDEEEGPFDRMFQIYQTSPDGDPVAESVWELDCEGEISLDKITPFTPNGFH
# Protocol: as §1, §2, §3
# D2s = biological target: T3, D2s (Homo sapiens, UniProt P14416); assay: Binding to dopaminergic receptors in cell cultures, displacement of [3H]-spiperone, D2s; settings: CHO or NM9D cell membranes; [3H]-spiperone 0.1 nM; non specific (+)-butaclamol 1 μM; Cheng and Prusoff; read-out: Receptor binding (Ki nM) D2s
# T3 construct: expressed in transfected cells; host or cells: CHO or murine mesencephalic neuronal NM9D (sic)
# T3 sequence (P14416 1-414 isoform P14416-2): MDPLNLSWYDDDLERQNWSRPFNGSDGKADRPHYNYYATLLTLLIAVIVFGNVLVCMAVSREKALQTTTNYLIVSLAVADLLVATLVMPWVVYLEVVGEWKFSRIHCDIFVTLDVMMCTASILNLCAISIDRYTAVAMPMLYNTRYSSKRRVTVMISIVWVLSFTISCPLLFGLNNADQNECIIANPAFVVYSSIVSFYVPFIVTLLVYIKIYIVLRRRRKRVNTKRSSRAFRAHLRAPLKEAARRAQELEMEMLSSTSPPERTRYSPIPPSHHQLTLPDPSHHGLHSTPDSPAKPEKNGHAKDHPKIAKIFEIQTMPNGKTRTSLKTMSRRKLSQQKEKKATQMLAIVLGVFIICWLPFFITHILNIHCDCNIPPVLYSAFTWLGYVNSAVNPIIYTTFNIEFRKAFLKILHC
# Protocol: as §1, §2, §3
# D3 = biological target: T4, D3 (Homo sapiens, UniProt P35462); assay: Binding to dopaminergic receptors in cell cultures, displacement of [3H]-spiperone, D3; settings: CHO or NM9D cell membranes; [3H]-spiperone 0.3 nM; non specific (+)-butaclamol 1 μM; Cheng and Prusoff; read-out: Receptor binding (Ki nM) D3
# T4 construct: expressed in transfected cells; host or cells: CHO or murine mesencephalic neuronal NM9D (sic)
# T4 sequence (P35462 whole entry): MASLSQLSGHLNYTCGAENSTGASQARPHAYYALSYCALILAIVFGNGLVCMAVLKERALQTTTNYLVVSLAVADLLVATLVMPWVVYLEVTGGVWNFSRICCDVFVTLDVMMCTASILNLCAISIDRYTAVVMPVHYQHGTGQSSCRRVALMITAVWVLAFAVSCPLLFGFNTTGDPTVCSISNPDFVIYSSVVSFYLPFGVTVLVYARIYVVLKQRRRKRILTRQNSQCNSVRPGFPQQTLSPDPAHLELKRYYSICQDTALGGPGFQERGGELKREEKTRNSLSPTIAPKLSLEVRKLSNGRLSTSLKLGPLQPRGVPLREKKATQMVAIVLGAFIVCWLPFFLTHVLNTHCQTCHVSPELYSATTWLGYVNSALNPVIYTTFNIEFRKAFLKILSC
# Protocol: as §1, §2, §3
# D4 = biological target: T5, D4 (Homo sapiens, UniProt P21917); assay: Binding to dopaminergic receptors in cell cultures, displacement of [3H]-spiperone, D4; settings: CHO or NM9D cell membranes; [3H]-spiperone 0.2 nM; non specific (+)-butaclamol 1 μM; Cheng and Prusoff; read-out: Receptor binding (Ki nM) D4
# T5 construct: expressed in transfected cells; host or cells: CHO or murine mesencephalic neuronal NM9D (sic)
# T5 sequence (P21917 1-419): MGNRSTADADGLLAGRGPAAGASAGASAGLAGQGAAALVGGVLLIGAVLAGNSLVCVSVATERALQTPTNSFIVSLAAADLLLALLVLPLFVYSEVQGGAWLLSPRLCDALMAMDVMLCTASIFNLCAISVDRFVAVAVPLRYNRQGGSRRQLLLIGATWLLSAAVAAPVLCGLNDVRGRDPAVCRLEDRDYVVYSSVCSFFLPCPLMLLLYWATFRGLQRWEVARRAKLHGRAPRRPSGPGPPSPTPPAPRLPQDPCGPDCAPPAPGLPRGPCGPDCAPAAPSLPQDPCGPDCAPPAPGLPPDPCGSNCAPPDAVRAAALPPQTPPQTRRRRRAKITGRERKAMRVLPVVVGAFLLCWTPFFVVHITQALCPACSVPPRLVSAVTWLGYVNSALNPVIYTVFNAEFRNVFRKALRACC
# Protocol: as §1, §2, §3
structure (smiles),measurement,setting,value
"CCCN(CCCCCCNCCc1ccc(S(C)(=O)=O)cc1)[C@H]1CCc2c(ccc3sc(=O)[nH]c23)C1 [Compound 2, (S)-6-N-propyl-N-6-[2-(4-methylsulfonylphenyl)ethylamino]hexylamino-4,5,6,7-tetrahydronaphtho(1,2-d)thiazol-2(3H)-one dihydrochloride]",Ki,D1,> 10000 nM
same,Ki,D5,9270 nM
same,Ki,D2s,9440 nM
same,Ki,D3,92 nM
same,Ki,D4,> 10000 nM
